Source: PMC3489664, “Sigma-1 Receptor Agonists Directly Inhibit NaV1.2/1.4 Channels” (PLoS ONE, 2012)

What was measured:
Type in all cases: cell-based
NaV1.2 [1] = target: T1, NaV1.2 (Rattus norvegicus, UniProt P04775); assay: whole-cell patch clamp in transfected HEK293T cells, […]; conditions: HEK-293T
T1 construct: gene Scn2a; rat brain type IIA Na+ channel clone

NaV1.4 [2] = target: T2, NaV1.4 (Rattus norvegicus, UniProt P15390, Y1586A); assay: as above; conditions: HEK-293T
T2 construct: gene Scn4a; rat NaV1.4 (NM013178)
T2 sequence (P15390 whole entry Y1586A): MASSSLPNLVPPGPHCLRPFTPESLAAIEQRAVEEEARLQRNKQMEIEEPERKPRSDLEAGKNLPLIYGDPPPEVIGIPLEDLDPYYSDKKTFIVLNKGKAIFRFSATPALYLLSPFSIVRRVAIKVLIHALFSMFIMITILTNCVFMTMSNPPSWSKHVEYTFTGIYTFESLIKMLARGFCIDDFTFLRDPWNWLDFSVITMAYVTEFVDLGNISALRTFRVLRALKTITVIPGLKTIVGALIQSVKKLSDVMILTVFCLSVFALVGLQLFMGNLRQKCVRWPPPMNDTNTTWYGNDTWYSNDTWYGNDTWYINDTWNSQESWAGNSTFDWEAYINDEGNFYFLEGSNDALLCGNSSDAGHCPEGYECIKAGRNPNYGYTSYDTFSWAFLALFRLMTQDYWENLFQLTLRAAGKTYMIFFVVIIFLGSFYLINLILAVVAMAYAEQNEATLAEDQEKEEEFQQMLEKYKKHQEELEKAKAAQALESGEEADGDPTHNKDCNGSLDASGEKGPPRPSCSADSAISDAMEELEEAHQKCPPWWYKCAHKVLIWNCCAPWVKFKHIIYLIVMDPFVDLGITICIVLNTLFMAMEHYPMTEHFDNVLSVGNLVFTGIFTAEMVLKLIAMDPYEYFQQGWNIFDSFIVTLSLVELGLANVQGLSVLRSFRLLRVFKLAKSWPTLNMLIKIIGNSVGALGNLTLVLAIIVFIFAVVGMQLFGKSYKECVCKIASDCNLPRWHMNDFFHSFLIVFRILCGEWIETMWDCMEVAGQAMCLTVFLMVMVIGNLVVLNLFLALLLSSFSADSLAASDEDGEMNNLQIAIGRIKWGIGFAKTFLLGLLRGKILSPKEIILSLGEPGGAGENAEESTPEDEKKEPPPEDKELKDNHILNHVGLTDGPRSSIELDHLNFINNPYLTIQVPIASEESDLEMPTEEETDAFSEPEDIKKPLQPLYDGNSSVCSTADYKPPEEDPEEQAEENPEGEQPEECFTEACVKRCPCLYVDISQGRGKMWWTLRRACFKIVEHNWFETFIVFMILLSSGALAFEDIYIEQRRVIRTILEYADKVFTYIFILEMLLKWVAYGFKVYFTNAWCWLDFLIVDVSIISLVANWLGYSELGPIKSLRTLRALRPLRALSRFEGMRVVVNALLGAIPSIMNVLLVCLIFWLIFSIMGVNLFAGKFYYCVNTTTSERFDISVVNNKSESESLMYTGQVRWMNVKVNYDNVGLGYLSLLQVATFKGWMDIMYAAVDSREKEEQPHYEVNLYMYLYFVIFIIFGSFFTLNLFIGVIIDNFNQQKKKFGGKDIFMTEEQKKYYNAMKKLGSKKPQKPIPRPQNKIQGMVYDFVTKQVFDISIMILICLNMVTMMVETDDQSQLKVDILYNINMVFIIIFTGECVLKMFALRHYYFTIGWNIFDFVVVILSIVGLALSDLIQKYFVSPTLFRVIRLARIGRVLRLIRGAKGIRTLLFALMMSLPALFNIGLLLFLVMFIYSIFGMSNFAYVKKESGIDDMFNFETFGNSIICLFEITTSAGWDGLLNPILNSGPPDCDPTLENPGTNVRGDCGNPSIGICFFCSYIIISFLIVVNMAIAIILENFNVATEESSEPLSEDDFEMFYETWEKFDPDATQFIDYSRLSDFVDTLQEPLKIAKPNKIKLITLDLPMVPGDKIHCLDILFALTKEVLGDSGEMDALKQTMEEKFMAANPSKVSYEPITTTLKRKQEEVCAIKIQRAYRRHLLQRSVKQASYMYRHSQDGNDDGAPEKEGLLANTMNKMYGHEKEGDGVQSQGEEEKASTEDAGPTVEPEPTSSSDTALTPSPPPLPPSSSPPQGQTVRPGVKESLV

NaV1.4 [3] = target: T3, NaV1.4 (Rattus norvegicus, UniProt P15390); assay: whole-cell patch clamp in transfected HEK293T and COS-7 cells, […]
T3 construct: gene Scn4a; rat NaV1.4 (NM013178) in pEGFP-N1
T3 sequence (P15390 whole entry): as the sequence (P15390 whole entry Y1586A) above, with A1586Y counted along it

NaV1.2 [4] = target: T4, NaV1.2 (Rattus norvegicus, UniProt P04775, F1764A); assay: whole-cell patch clamp in transfected HEK293T cells, […]; conditions: HEK-293T
T4 construct: gene Scn2a; rat brain type IIA Na+ channel clone
T4 sequence (P04775 whole entry F1764A): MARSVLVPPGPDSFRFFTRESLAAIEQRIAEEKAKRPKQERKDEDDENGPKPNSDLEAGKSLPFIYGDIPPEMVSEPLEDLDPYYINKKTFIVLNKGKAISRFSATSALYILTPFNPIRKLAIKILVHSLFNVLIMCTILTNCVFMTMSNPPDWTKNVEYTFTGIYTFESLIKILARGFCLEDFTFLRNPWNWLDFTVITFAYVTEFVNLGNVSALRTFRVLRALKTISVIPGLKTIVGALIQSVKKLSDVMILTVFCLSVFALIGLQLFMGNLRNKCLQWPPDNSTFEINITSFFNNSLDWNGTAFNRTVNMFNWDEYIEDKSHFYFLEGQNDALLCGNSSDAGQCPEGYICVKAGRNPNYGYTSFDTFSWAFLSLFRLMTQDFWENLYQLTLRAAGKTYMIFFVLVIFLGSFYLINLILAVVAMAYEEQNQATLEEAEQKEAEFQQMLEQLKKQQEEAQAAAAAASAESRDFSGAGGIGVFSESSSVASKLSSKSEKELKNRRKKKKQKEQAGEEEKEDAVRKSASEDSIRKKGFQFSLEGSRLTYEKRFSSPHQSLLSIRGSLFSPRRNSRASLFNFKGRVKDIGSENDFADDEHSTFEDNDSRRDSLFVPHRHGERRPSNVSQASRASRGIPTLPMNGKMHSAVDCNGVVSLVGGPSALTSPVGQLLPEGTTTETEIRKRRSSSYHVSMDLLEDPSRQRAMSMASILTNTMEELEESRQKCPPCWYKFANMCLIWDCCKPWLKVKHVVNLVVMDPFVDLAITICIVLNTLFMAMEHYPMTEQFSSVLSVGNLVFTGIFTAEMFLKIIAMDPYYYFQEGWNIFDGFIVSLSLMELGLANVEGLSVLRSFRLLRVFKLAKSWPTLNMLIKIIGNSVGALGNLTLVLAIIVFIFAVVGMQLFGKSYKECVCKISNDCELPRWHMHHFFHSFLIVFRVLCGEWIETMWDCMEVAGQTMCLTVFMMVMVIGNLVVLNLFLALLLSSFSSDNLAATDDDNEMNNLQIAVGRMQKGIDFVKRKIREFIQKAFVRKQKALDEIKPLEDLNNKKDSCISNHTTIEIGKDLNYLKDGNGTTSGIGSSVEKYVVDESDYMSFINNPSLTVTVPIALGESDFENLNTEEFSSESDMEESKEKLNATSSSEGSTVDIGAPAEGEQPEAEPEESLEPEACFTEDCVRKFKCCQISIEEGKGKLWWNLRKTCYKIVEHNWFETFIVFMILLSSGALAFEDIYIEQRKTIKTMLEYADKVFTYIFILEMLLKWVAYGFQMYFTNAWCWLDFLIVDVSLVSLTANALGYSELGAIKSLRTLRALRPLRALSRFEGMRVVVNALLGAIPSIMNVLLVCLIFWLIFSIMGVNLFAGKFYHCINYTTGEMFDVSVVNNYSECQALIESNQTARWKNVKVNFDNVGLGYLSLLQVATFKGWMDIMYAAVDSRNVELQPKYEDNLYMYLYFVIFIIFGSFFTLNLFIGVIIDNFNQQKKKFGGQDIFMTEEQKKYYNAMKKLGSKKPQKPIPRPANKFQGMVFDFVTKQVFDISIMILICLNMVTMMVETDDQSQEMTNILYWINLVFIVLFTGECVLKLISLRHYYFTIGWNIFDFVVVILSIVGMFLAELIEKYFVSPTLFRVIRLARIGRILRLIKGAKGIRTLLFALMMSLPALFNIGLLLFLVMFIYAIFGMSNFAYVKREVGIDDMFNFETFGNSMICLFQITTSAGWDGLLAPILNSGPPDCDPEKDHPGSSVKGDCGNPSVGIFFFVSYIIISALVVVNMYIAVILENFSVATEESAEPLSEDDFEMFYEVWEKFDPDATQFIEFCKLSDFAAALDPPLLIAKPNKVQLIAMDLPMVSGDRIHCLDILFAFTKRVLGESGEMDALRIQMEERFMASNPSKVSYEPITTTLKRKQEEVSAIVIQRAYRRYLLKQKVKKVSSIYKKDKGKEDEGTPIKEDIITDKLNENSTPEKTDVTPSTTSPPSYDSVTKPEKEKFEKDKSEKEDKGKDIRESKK

NaV1.2 [5] = target: T5, NaV1.2 (Rattus norvegicus, UniProt P04775, Y1771A); assay: as above; conditions: HEK-293T
T5 construct: gene Scn2a; rat brain type IIA Na+ channel clone
T5 sequence (P04775 whole entry Y1771A): as the sequence (P04775 whole entry F1764A) above, with A1764F, Y1771A counted along it

NaV1.2 [6] = target: T1, NaV1.2; assay: whole-cell patch clamp in transfected HEK293T cells
NaV1.4 [7] = target: T6, NaV1.4 (Rattus norvegicus, UniProt P15390, F1579A); assay: whole-cell patch clamp in transfected HEK293T cells, […]; conditions: HEK-293T
T6 construct: gene Scn4a; rat NaV1.4 (NM013178)
T6 sequence (P15390 whole entry F1579A): as the sequence (P15390 whole entry Y1586A) above, with F1579A, A1586Y counted along it

NaV1.2 [8] = target: T1, NaV1.2; assay: whole-cell patch clamp in transfected HEK293T and COS-7 cells, […]

T1 sequence (P04775 whole entry): as the sequence (P04775 whole entry F1764A) above, with A1764F counted along it

Structure (SMILES): Cc1ccccc1NC(=N)Nc1ccccc1C [1,3-di-o-tolyl-guanidine]
- inhibition at 100 µM (NaV1.2 [1]): 69 ± 2.5%

Structure (SMILES): C=CCN1CC[C@]2(C)c3cc(O)ccc3C[C@H]1[C@H]2C [(+)-SKF 10047]
- inhibition at 100 µM (NaV1.4 [2]): 49.3 ± 0.5%
- inhibition at 100 µM (NaV1.4 [3]): 51.5 ± 2.5%
- inhibition at 100 µM (NaV1.2 [4]): 25.9 ± 1.6%
- inhibition at 100 µM (NaV1.2 [5]): 45.2 ± 1.3%
- IC50 (NaV1.2 [6]): 140 µM
- inhibition at 100 µM (NaV1.4 [7]): 23 ± 1.7%

Structure (SMILES): COc1ccc2c(c1)[C@]13CCCC[C@@H]1[C@H](C2)N(C)CC3 [Dextromethorphan]
- inhibition at 100 µM (NaV1.2 [8]): 65.8 ± 2%
